# From US8249697B2, “Cardiac output monitor with compensation for tissue perfusion” (Alfred E. Mann Institute for Biomedical Engineering at the …, priority 2008, dated 2012)
# What was measured:
# [1] = disappearance of ICG from blood after high dose intravenous injection (calibration sequence); type: in vivo, New Zealand White rabbits; conditions: rabbit, 1 mg ICG intravenously, metabolized by the liver
# From the text: Experiments have been performed in New Zealand White rabbits (2.8-3.5 Kg) anesthetized with halothane and artificially ventilated with an oxygen-enriched gas mixture (FiO2˜0.4) to achieve a SaO2 above 99% and an end-tidal CO2 between 28 and 32 mm Hg (FIG. 4). The left femoral artery was cannulated for measurement of the arterial blood pressure throughout the procedure. A small catheter was positioned in the left brachial vein to inject the indicator, ICG. Body temperature was maintained with a heat lamp.
# Calibration of the transcutaneous fluorescence intensity measured at the level of the animals' ear as a function of ICG concentration in blood was performed as follows. […]
# As the liver metabolizes ICG, the blood ICG concentration decreases back to 0 in about 20 minutes. […] The fluorescence intensity of the blood in the cuvette was converted to a measurement of concentration using the known standard curve of fluorescence intensity versus ICG concentration established for the cuvette. ICG fluorescence was measured at the level of the ear at the exact time of the blood sample withdrawal. […]
# For the range of concentrations used in these studies, ICG concentration and transcutaneous fluorescence were linearly related. The calibration line passes through the origin of the axes since there is no measured fluorescence when the ICG blood concentration is 0.
# blood proteins = conditions: stated as typical; cited from earlier work
# [2] = metabolites are not fluorescent; cited from earlier work
compound,measurement,setting,value
"CC1(C)C(/C=C/C=C/C=C/C=C2\N(CCCCS(=O)(=O)O)c3ccc4ccccc4c3C2(C)C)=[N+](CCCCS(=O)(=O)[O-])c2ccc3ccccc3c21 [ICG, indocyanine green]",time for blood ICG concentration to decrease back to 0,[1],about 20 minutes
same,fraction of ICG injected in the bloodstream that binds to blood proteins,blood proteins,more than 95%
same,stability in aqueous solution,[2],breaks down quickly
